Measured values as given in the RepoRT retention time repository (doi:10.1016/j.foodchem.2021.129757).

Tests used:
Conditions in all cases: stereoisomer not certain
[1] = RP, Waters ACQUITY UPLC BEH Shield RP18, 100 × 2.1 mm, 1.7 µm, 30 °C, 0.6 mL/min, estimated dead time 0.37 min; A: water + 0.1% formic acid, pH 3; B: acetonitrile + 0.1% formic acid, pH 3; gradient (min/%B) 0/0 2/0 7/10 22/95 22.1/0 26/0
[2] = RP, Phenomenex Luna C18, 150 × 4.6 mm, 3 µm, 25 °C, 0.5 mL/min, estimated dead time 3.2 min; A: water + 0.1% formic acid, pH 3; B: acetonitrile + 0.1% formic acid, pH 3; gradient (min/%B) 0/0 30/30 35/40 50/80 52/80 60/0 65/0
[3] = RP, Waters ACQUITY UPLC BEH Shield RP18, 150 × 2.1 mm, 1.7 µm, 40 °C, 0.4 mL/min, estimated dead time 0.83 min; A: water + 0.1% formic acid, pH 3; B: acetonitrile + 0.1% formic acid, pH 3; gradient (min/%B) 0/0 30/50 31/100 37/100 37.1/0
[4] = RP, Agilent InfinityLab Poroshell 120 EC-C18, 100 × 3 mm, 2.7 µm, 25 °C, 0.4 mL/min, estimated dead time 1.1 min; A: water + 0.1% formic acid, pH 3; B: acetonitrile + 0.1% formic acid, pH 3; gradient (min/%B) 0/5 10/25 20/40 24/90 25/90 26/5 30/5
[5] = RP, Agilent ZORBAX Eclipse XDB-C18, 100 × 2.1 mm, 1.8 µm, 50 °C, 0.4 mL/min, estimated dead time 0.55 min; A: water + 0.1% formic acid, pH 3; B: methanol + 0.1% formic acid, pH 3; gradient (min/%B) 0/2 10/100 14.5/100 14.51/2 16.5/2
[6] = RP, Phenomenex Synergi Hydro-RP, 150 × 2 mm, 4 µm, 30 °C, 0.5 mL/min, estimated dead time 0.6 min; A: water + 0.1% formic acid, pH 3; B: acetonitrile + 0.1% formic acid, pH 3; gradient (min/%B) 0/5 1/5 35/45 40/100 45/100
[7] = RP, 50 × 0.5 mm, 2.7 µm, 35 °C, 0.01 mL/min, estimated dead time 0.62 min; A: water + 0.1% formic acid, pH 3; B: acetonitrile + 0.1% formic acid, pH 3; gradient (min/%B) 0/5 12/95 14/95 16/5
[8] = RP, Waters ACQUITY UPLC HSS T3, 100 × 2.1 mm, 1.8 µm, 30 °C, 0.4 mL/min, estimated dead time 0.55 min; A: water + 0.1% formic acid, pH 3; B: acetonitrile + 0.1% formic acid, pH 3; gradient (min/%B) 0/0 2/0 15/100 22/100 22.1/0 26/0
[9] = RP, Phenomenex Luna Omega Polar C18, 100 × 2.1 mm, 1.6 µm, 40 °C, 0.5 mL/min, estimated dead time 0.44 min; A: water + 0.5% formic acid; B: acetonitrile + 0.5% formic acid; gradient (min/%B) 0/5 3/50 3.1/100 5/100 5.1/5 7/5
[10] = RP, Phenomenex Luna Omega Polar C18, 100 × 2.1 mm, 1.6 µm, 40 °C, 0.5 mL/min, estimated dead time 0.44 min; A: water + 0.1% formic acid + 10 mM ammonium formate; B: acetonitrile; gradient (min/%B) 0/5 8/20 10/100 12/100 12.1/5 14/5
[11] = RP, Waters ACQUITY UPLC BEH C18, 100 × 2.1 mm, 1.7 µm, 65 °C, 0.4 mL/min, estimated dead time 0.55 min; A: water + 0.1% formic acid, pH 3; B: 80% acetonitrile + 20% acetone + 0.1% formic acid, pH 3; gradient (min/%B) 0/0 5/100 5.5/0 6/0
[12] = Other, Phenomenex Kinetex PFP, 100 × 4.6 mm, 5 µm, 45 °C, 0.6 mL/min, estimated dead time 1.8 min; A: water + 0.1% trifluoroacetic acid, pH 2; B: methanol; gradient (min/%B) 0/40 20/72 21/40
[13] = RP, Waters ACQUITY UPLC HSS T3, 100 × 2.1 mm, 50 °C; A: water + 0.1% formic acid, pH 3; B: 30% methanol + 70% acetonitrile + 0.1% formic acid, pH 3; gradient (min/%B) 0/5 1/8 2/15 3/40 4/70 4.5/100 5/100 6.4/100 6.6/5 6.8/5 7/5
[14] = RP, Agilent ZORBAX RRHD Eclipse Plus C18, 50 × 2.1 mm, 1.8 µm, 30 °C, 0.4 mL/min, estimated dead time 0.28 min; A: water + 0.1% formic acid, pH 3; B: acetonitrile + 0.1% formic acid, pH 3; gradient (min/%B) 0/1 5/10 8/25 9.1/99 10/99 12/99
[15] = RP, Agilent ZORBAX RRHD Eclipse Plus C18, 50 × 2.1 mm, 1.8 µm, 30 °C, 0.4 mL/min, estimated dead time 0.28 min; A: water + 0.1% formic acid, pH 3; B: acetonitrile + 0.1% formic acid, pH 3; gradient (min/%B) 0/1 5/10 8/25 9.1/99 10/99 12/1

SMILES	LC retention time [2] [min]	LC retention time [4] [min]	LC retention time [5] [min]	LC retention time [6] [min]	LC retention time [7] [min]	LC retention time [8] [min]	LC retention time [9] [min]	LC retention time [10] [min]	LC retention time [12] [min]	further results
COc1cc(CC2COC(c3ccc(O)c(OC)c3)C2CO)ccc1O (single isomer, unassigned; (+)) [(+)-Lariciresinol]	32.2	12.1	5.5	19.4	5.08	10.2	2.68	9.31		LC retention time [1]: 13.5 min; LC retention time [3]: 15 min; LC retention time [11]: 2.48 min
COc1cc(C2Oc3c(O)cc(-c4oc5cc(O)cc(O)c5c(=O)c4O)cc3C2CO)ccc1O (stereo not given) [2,3-Dehydrosilychristin A]									17.5	
O=C(O)C=Cc1ccc(O)cc1O [2,4-Dihydroxycinnamic acid]									5.73	LC retention time [13]: 3.08 min
Cc1ccc(O)c(OS(=O)(=O)O)c1 [4-Methylcatechol monosulfate]									4.92	
COc1c(O)cc(C(=O)O)cc1OS(=O)(=O)O [4-O-methylgallic acid 3-O-sulfate]	11.7	3.61	2.27	5.32	1.84	7.32	1.41	1.78		LC retention time [14]: 1.15 min; LC retention time [1]: 10.4 min; LC retention time [15]: 3.6 min
Cc1ccc(O)c(O)c1 [4-methylcatechol]									6.24	
CCCCCCCCCCCCCCCCCc1cc(O)cc(O)c1 [Alkylresorcinol C17:0]			11.1		13.3	20.3	4.6	11.1		
CCCCCCCCCCCCCCCCCCCCCCCCCc1cc(O)cc(O)c1 [Alkylresorcinol C25:0]			13				5.12	11		
O=C1c2c(O)cc(O)cc2OC(c2cc(O)c(OS(=O)(=O)O)c(O)c2)C1O (stereo not given) [Ampelopsin-4-O-sulfate]									7.54	
O=S(=O)(O)Oc1ccccc1O [Catechol O-sulfate]	18.2	4.22	2.1	4.29				1.79		LC retention time [14]: 1.45 min; LC retention time [3]: 7.99 min; LC retention time [15]: 2.95 min; LC retention time [13]: 2.26 min
